This note sets out measurements from publication PMC8429736, “Pharmacological characterization of mutant huntingtin aggregate-directed PET imaging tracer candidates” (Scientific Reports, 2021).

Like-named read-outs stand apart in the source and are kept apart here.

The target of one assay is T1, Exon1-Q46 aggregates (Homo sapiens, UniProt P42858, INS38QQQQQQQQQQQQQQQQQQQQQQQQQ).
T1 construct: MBP-HTT(1-89)Q46-His(6x); MBP (N, cleaved yes); made in house; host or cells: E. coli BL21 (DE3)
The experiment in a line: RBA saturation binding, recombinant Exon1-Q46 aggregates. The method, then: (§1) For N-terminal tag cleavage, proteins at 30 µM in 2 mL reaction tubes were incubated with 150 µg/mL thrombin (Sigma, T4648) in 50 mM Tris (pH 8.0), 150 mM NaCl, 2 mM CaCl2 for 16 h at 37 °C.
For radioligand binding assays (RBA) (see below) and radiometric filter trap assays (RAFTA) (see below), aggregates were separated by centrifugation (5 min 16,000×g) and resuspended with assay buffer (50 mM Tris pH 8.0, 150 mM NaCl) (see Supplementary Fig. S2B). Protein concentrations always refer to the starting peptide concentrations (i.e., peptide concentration applied in the aggregation reaction before thrombin cleavage) since post-cleaved aggregates are heterogeneous and the number of peptides per aggregate is unknown.
Samples were then transferred onto a 96-well GF/B filter plate (Perkin Elmer, #6005177) using a Filtermate Harvester, aspirated by vacuum and wells washed twice with 200 µL PBS. After drying the filter plates for 1 h at 55 °C the back of the plate was sealed with aluminum cover and 30 µL of scintillation fluid (Perkin Elmer, #6013641) per well was added. The tops of the plates were sealed, and the plates were incubated for 15 min in the dark and counted in a TopCount or MicroBeta2 reader (both Perkin Elmer).
(§2) For saturation binding experiments, aggregate lysate preparation and final concentration in the assay, assay buffer, incubation times and plate processing were identical to the competition format. Radioligand was titrated up to 100 nM. Raw cpm were converted into nM using a calibration line of total added radioligand without washing and filtering (spiked onto the filter plate and dried) (e.g., X) and normalized to the concentration of protein (e.g., Y) to finally obtain […] (e.g., X/Y). Specific binding (SB) was calculated as full binding minus full competition (in the presence of excess unlabeled ligand) and a hyperbolic mono-phasic fit was applied using GraphPad Prism to determine Kd and Bmax.

The next assay has as its system aggregated ataxin 1. Briefly: ARG, Sca1 mouse models. The format is binding. The method, then:
Twenty µm-thick sections were prepared from brains of disease mouse models and WT mice or human post-mortem brain samples by using a cryostat, mounted on superfrost slides and stored at -80 °C for a maximum of 2 weeks. On the day of the experiment, slides were adapted to room temperature for 30 min and then equilibrated by immersion into assay buffer (50 mM Tris–HCl pH 7.4; 120 mM NaCl; 5 mM KCl; 2 mM CaCl2; 1 mM MgCl2) for 20 min at room temperature.
Radioligand solutions were prepared in assay buffer. Optimal radioligand concentrations were determined in advance based on signal-to-background ratio obtained in mouse or human brain tissue. The solutions were mixed in a Coplin jar (Sigma, S5516-6EA) by gently shaking at 175 rpm for 10 min at room temperature. Sections were incubated by immersion into assay buffer containing either only radioligand (total binding or TB) or radioligand plus 10 µM of unlabeled compound (non-specific binding or NSB) for 60 min at room temperature. Afterwards slides were washed three times for 10 min with ice-cold washing buffer (50 mM Tris–HCl (pH 7.4)) at 4 °C and dipped for three seconds in ice-cold distilled water to remove buffer salts. […]

The next assay has as its target zQ175 brain homogenates. The experiment in a line: Whole brain homogenate RBA saturation binding, HOM zQ175. More on the design: species or system mouse. The note with it: HOM zQ175 12 months whole brain homogenate. The method, then:
For RBA in vitro binding assays, brain tissue was sliced (50 µm), weighed and homogenized in PBS (Gibco, 14190-94), 0.1% BSA with a glass pestle (10 strokes) at a concentration of 12–15 mg wet tissue per mL buffer. The crude homogenate concentration was then adjusted to 10 mg/mL (wet tissue) and stored as single-use aliquots at -80 °C.
as §2

In the next assay the target is Q46 aggregates. The experiment in a line: RBA saturation binding, Q46 aggregates. Conditions: tritiated compound; mean ± SD. Here is the method: as §1
For radioligand binding assays (RBA) (see below) and radiometric filter trap assays (RAFTA) (see below), aggregates were separated by centrifugation (5 min 16,000×g) and resuspended with assay buffer (50 mM Tris pH 8.0, 150 mM NaCl) (see Supplementary Fig. S2B). […]
Samples were then transferred onto a 96-well GF/B filter plate (Perkin Elmer, #6005177) using a Filtermate Harvester, aspirated by vacuum and wells washed twice with 200 µL PBS. […] The tops of the plates were sealed, and the plates were incubated for 15 min in the dark and counted in a TopCount or MicroBeta2 reader (both Perkin Elmer).
For saturation binding experiments, aggregate lysate preparation and final concentration in the assay, assay buffer, incubation times and plate processing were identical to the competition format. […] Specific binding (SB) was calculated as full binding minus full competition (in the presence of excess unlabeled ligand) and a hyperbolic mono-phasic fit was applied using GraphPad Prism to determine Kd and Bmax.

T1 sequence (P42858 with tags, fused parts or gaps with the stated changes): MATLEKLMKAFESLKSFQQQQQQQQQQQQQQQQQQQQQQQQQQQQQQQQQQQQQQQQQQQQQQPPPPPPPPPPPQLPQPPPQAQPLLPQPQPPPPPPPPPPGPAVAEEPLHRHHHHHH

In general, Kd refers to the equilibrium constant for the complex coming apart. In the case of `COc1ccc(COc2ccc3oc(-c4ccc(=O)n(C)n4)nc3c2)nc1` [CHDI-180], on Exon1-Q46 aggregates (representative single experiment (Fig. 2A)), the Bmax is on record as 0.3 nmol/μmol. The Kd on Exon1-Q46 aggregates (representative single experiment (Fig. 2A), read-out: Kd) was found to be 3.2 nM; at Exon1-Q46 aggregates (tritiated compound, mean ± SD, read-out: Kd Exon1-Q46), 2.6 ± 0.9 nM; on zQ175 brain homogenates, 2.4 nM; on Q46 aggregates it was 7.7 ± 3.3 nM. In addition, in the assay with aggregated ataxin 1 (1 nM radioligand, PcP2-82Q and SCA154Q/2Q mice), the “binding to aggregated ataxin 1” value is on record as “bound to aggregated ataxin 1”. Further, in the assay with aggregated ataxin 1 (brain sections of 2 Sca mouse models), the “ARG signals compared to the R6/2 HD model” value is reported as “much lower”. In the assay on zQ175 brain homogenates (per mg tissue), the “RBA Bmax” value turned out to be 34.0 fmol/mg.
